For experiment [1], the target named is T1, HDAC1 (Homo sapiens, UniProt Q13547).
T1 construct: purchased Reaction Biology corporation (contract assay)
The settings on record: previously reported 4-amino analogues; cited from earlier work.

The next experiment deals with T2, HDAC3 (Homo sapiens, UniProt O15379).
T2 construct: purchased Reaction Biology corporation (contract assay)
The settings on record: previously reported 4-amino analogues; cited from earlier work.

The target in the next experiment is T3, HDAC8 (Homo sapiens, UniProt Q9BY41).
T3 construct: purchased Reaction Biology corporation (contract assay)
T3 sequence (Q9BY41 1-377): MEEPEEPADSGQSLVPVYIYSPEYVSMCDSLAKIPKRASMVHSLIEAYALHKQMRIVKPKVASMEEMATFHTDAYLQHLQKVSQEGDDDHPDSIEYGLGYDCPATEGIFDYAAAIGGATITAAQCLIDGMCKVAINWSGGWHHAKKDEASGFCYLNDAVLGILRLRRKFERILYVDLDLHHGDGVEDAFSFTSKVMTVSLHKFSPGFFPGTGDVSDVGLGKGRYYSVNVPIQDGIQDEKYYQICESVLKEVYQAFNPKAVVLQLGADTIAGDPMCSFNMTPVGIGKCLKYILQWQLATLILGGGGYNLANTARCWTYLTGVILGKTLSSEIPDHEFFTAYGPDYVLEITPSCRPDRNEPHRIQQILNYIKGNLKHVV
The settings on record: previously reported 4-amino analogues; cited from earlier work.

Another experiment concerns the target T4, HDAC11 (Homo sapiens, UniProt Q96DB2).
T4 construct: purchased Reaction Biology corporation (contract assay)
T4 sequence (Q96DB2 1-347): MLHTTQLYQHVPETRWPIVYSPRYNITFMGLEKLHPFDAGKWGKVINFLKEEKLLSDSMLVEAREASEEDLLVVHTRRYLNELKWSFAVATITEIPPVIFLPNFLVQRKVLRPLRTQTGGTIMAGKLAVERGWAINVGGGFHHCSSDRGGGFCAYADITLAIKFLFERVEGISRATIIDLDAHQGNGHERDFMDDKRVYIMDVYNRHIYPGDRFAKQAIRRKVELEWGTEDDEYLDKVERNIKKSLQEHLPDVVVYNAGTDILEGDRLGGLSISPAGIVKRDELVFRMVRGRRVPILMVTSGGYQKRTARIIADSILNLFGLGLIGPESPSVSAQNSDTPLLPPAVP
The settings on record: previously reported 4-amino analogues; cited from earlier work.

For experiment [2], the system named is acetylated tubulin in A549 cells. In words: Tubulin acetylation in A549 cells, immunostaining with high content imaging. The settings on record: 24 h; for Concentration from which tubulin acetylation was significantly increased: compared to untreated cells. In kind it is cell-based, human. How it is done:
(§1) To confirm the observed activities of the selected test compounds against HDAC6, the acetylation status of tubulin in the human lung cancer cell line A549 was investigated by immunostaining combined with automated high content image analysis (see supplementary material for full details). […] The apparent drop in histone acetylation by both compounds above 10 μM is indicative of a potential cytotoxicity at higher concentrations (data not shown).
(§2) Figure 5 Cell-based assessment of HDAC activity and selectivity. Dose and time-dependency of tubulin and histone acetylation by test compounds. A549 cells were treated with (A,B) different concentrations (0–50 µM) of CF011, KNH019 and tubastatin for 24 h or with (C,D) 1 µM over different time intervals before (A,C) tubulin acetylation or (B,D) histone acetylation were automatically quantified using high content imaging. Data represent the average of four independent experiments with four replicate wells/experiments. The statistical significances of effects compared to the untreated control were analysed using Brown–Forsythe and Welch one-way ANOVA analyses using Graph Pad Prism. The significance was set as * 0.05 > p ≥ 0.01, ** 0.01 > p ≥ 0.002. Error bars represent the Standard Error of Mean (SEM). (E) Representative fluorescence images show tubulin acetylation (yellow), histone acetylation (red) and nuclear counterstain (DAPI, blue) after 24 h of exposure to test compounds. Secondary antibodies were detected using excitation/emission filters for CY3 (excitation: 542/27 nm, emission: 597/45 nm), CY5 (excitation: 632/22 nm, emission: 684/25 nm) and DAPI (excitation: 390/18 nm, emission: 435/48 nm), respectively. […]
(§3) S2.2 Cell Culture, Treatment and Immunostaining:
(§4) A549 cells (ATCC® CCL-185™, In Vitro Technologies Pty. Ltd., Victoria, Australia) were cultured in low glucose Dulbecco’s Modified Eagle Media (DMEM, 1 g/L glucose, 0.584 g/L L-glutamine, 3.7 g/L sodium bicarbonate, 10 % fetal bovine serum) under standard conditions (> 90 % humidity, 37 °C temperature, 5 % CO 2). For experiments, 5,000 cells/ well were seeded in 100 µl serum free DMEM in 384 well plates (µCLEAR®, Greiner) and left to adhere for 24 hours before the treatment. Cells were treated with 100 µl of test compound -containing media for up to 24 hours before cells were fixed with 4 % paraformaldehyde (PFA) solution in PBS (10 minutes at room temperature (RT)) and permeabi lized with 50 µl of 0.5 % Triton X -100 in PBS. Subsequently, cells were blocked in PBST (5% fetal bovine serum, 5% bovine serum albumin, 5% goat serum, 0.1% Tween 20 in PBS) before stained with anti - acetylated tubulin (T7451, Sigma Aldrich; 1:1,000) and an ti-acetylated histone antibody (ab47915, Abcam; 1:1,000) overnight at 4 °C. Subsequently, cells were exposed to secondary antibodies (goat anti-mouse Alexa fluor 594 (Invitrogen; 1:10,000) and goat anti -rabbit Alexa fluor 647 (Invitrogen; 1:10,000) in PBST ) and DAPI solution (Invitrogen; 1:10,000 in PBST) before images were acquired.
(§5) Fluorescence images were acquired (10x magnification, 2 -D format) using the InCell 2200 high content imaging system (V7.3, GE Healthcare life sciences) wi th CY3 (excitation: 542/27 nm, emission: 597/45 nm), CY5 (excitation: 632/22 nm, emission: 684/25 nm) and DAPI (excitation: 390/18 nm, emission:
435/48 nm) filters. Two images/well at predefined positions were automatically acquired with 4 replicate wells for each treatment condition/ experiment. At least 3 independent experiments were conducted for each condition. Acquired images were automatically processed using InCarta software (v1.6, GE Healthcare life sciences). All images were manually checked for ar tefacts. Images with less than 30 cells were excluded from the analysis. Excel and GraphPad Prism was used for statistical analysis and graphical representation. Data was expressed as % Relative Fluorescence Units (RFU) […]

Experiment [3] relates to acetylated histone in A549 cells. In words: Histone acetylation in A549 cells, immunostaining with high content imaging. The settings on record: 24 h; for Concentration from which histone acetylation was significantly increased: compared to untreated cells. Format: cell-based, human. As to the method: as §1, §2, §3, §4, §5
435/48 nm) filters. […] Data was expressed as % Relative Fluorescence Units (RFU) […]

Experiment [4] has as its target T1, HDAC1. Further details: method as in PMID 30168823. The settings on record: Figure 2; cited from earlier work.
A further experiment deals with T5, HDAC6 (Homo sapiens, UniProt Q9UBN7).
T5 construct: purchased Reaction Biology corporation (contract assay)
T5 sequence (Q9UBN7 1-1215): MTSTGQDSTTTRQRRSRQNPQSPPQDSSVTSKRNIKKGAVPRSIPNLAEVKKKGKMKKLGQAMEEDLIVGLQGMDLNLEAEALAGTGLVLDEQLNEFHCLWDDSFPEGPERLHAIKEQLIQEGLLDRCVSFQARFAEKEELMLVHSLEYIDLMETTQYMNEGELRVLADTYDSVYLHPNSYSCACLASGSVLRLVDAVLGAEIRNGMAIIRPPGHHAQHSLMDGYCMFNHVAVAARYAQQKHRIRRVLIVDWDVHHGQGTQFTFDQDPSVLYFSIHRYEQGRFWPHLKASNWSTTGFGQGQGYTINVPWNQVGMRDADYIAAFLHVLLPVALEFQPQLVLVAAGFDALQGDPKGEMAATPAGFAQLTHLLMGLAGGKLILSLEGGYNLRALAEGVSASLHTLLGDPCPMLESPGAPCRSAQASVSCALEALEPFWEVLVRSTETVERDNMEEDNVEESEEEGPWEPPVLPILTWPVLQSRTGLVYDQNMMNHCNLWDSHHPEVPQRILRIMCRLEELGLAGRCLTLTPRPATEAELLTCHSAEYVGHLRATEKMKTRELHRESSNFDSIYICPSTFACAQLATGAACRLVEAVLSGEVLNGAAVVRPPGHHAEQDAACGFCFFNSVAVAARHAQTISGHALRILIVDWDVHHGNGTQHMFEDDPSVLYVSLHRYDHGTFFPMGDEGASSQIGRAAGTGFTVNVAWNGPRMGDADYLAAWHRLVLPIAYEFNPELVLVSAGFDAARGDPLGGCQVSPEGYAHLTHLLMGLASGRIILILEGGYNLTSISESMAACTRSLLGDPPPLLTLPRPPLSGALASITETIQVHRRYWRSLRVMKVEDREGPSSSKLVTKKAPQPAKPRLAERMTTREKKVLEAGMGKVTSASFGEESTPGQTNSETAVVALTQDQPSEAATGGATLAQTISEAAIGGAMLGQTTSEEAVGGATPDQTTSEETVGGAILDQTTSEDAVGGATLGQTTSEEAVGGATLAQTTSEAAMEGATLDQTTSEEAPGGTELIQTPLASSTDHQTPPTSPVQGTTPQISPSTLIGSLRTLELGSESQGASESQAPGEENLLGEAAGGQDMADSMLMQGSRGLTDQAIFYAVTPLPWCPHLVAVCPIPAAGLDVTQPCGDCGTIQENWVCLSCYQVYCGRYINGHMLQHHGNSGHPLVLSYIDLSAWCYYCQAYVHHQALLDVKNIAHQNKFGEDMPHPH
Further details: method as in PMID 30168823. The settings on record: Figure 2; cited from earlier work.

Where two headings read alike, the source gives them in different places.

T1 sequence (Q13547 whole entry): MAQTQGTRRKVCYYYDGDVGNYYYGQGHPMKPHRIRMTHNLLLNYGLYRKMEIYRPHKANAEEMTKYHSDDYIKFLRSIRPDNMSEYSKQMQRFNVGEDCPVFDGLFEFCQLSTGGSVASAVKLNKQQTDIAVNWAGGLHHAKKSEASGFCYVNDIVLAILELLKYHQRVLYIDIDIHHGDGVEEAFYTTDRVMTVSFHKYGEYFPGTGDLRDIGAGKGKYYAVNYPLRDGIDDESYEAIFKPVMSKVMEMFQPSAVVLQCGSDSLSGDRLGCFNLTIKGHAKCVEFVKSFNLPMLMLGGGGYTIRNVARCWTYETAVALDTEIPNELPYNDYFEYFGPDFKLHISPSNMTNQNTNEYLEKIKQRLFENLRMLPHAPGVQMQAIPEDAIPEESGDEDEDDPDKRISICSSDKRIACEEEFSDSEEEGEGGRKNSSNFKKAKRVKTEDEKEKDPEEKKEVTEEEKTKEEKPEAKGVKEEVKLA
T2 sequence (O15379 whole entry): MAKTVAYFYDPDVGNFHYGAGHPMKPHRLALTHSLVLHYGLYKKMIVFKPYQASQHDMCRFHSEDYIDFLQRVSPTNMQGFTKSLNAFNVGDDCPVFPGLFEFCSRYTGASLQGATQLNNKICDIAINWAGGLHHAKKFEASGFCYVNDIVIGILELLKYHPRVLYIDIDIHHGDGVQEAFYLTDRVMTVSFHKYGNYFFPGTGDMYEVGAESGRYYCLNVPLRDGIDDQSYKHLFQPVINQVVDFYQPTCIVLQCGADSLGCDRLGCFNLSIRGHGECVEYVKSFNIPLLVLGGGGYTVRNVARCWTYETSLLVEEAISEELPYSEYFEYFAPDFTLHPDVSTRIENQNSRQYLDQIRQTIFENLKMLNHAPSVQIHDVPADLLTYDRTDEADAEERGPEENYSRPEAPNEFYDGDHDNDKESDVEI
T2 sequence (Q9Y618 395-489 partner limits assumed): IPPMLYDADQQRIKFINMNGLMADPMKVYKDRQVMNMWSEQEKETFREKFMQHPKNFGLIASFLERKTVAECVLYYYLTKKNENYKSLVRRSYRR

For orientation: IC50 means the concentration needed to halve the response being measured. With `CCCNc1ccc2c3c(cccc13)C(=O)N(CCCCCC(=O)NO)C2=O` [CF010], the “Selectivity factor (SF) = HDAC1 IC50/HDAC6 IC50” value at HDAC1 [1] was 123. In addition, at HDAC3, the IC50 is 110 ± 4 nM and the “Selectivity factor (SF) HDAC3 against HDAC6” value is recorded as 23. In addition, at HDAC8, the “Selectivity factor (SF) HDAC8 against HDAC6” value is 317. Besides, the “Selectivity factor (SF) HDAC11 against HDAC6” value at HDAC11 is recorded as 16.
In the case of `O=C(CCCCCN1C(=O)c2cccc3c(NCc4ccccc4)ccc(c23)C1=O)NO` [CF011], the “Increase of tubulin acetylation compared to untreated cells (up to)” value in experiment [2] (0-50 µM, dose-dependent) was around 1.5 fold. For the same molecule, the “Tubulin acetylation in representative immunostaining images” value in experiment [2] (10 µM) is “strongly induce”. Also, the “Concentration from which tubulin acetylation was significantly increased” value in experiment [2] is on record as 10^−9 mM. In experiment [3] (10 µM), the “Histone acetylation in representative immunostaining images” value is “strongly induce”. Further, the “Concentration from which histone acetylation was significantly increased” value in experiment [3] was 10^−6 mM. In addition, the “Selectivity factor (SF) = HDAC1 IC50/HDAC6 IC50” value at HDAC1 [1] is reported as 566. For the same molecule, at HDAC3, the IC50 was 360 ± 0.7 nM and the “Selectivity factor (SF) HDAC3 against HDAC6” value is on record as 103. Moreover, the “Selectivity factor (SF) HDAC8 against HDAC6” value at HDAC8 is 703. At HDAC11, the “Selectivity factor (SF) HDAC11 against HDAC6” value is given as 43.
On to `CN1CCc2c(c3ccccc3n2Cc2ccc(C(=O)NO)cc2)C1` [tubastatin], for which the “Concentration from which tubulin acetylation was significantly increased” value in experiment [2] is listed as 10^−3 mM. Further, the “Concentration from which histone acetylation was significantly increased” value in experiment [3] is on record as 10^−3 mM.
For the molecule `COc1cc2c3c(cccc3c1)C(=O)N(Cc1ccc(C(=O)NO)cc1)C2=O` [Compound 3], at HDAC1 [4], the IC50 was 33 nM and the “Selectivity factor (SF) = HDAC1 IC50/HDAC6 IC50” value was 412. Further, the IC50 on HDAC6 was 0.08 nM.

Source of the values: publication PMC8232238 (Cells, 2021).
